Assay results reported in ChEMBL document CHEMBL1124314, “Development of phosphonate derivatives of gadolinium chelates for NMR imaging of calcified soft tissues” (J Med Chem, 1989).

What was measured:
[1] = species: Rattus norvegicus; experiment: Biodistribution in rat bone in the presence of 0.10 M GdDTPA-BDP; assay type: ADME, organism-based, Bone element; conditions: in vivo
[2] = species: Rattus norvegicus; experiment: Biodistribution in rat bone in the presence of 0.10 M/0.11 M GdDTPA-AEP; assay type: ADME, organism-based, Bone element; conditions: in vivo
[3] = species: Rattus norvegicus; experiment: Biodistribution in rat bone in the presence of GdDTPA at 4 hr; assay type: ADME, organism-based, Bone element; conditions: in vivo
[4] = species: Rattus norvegicus; experiment: Biodistribution in rat bone in the presence of GdDTPA-BDP at 1 hr; assay type: ADME, organism-based, Bone element; conditions: in vivo
[5] = species: Rattus norvegicus; experiment: Biodistribution in rat bone in the presence of GdDTPA-HPDP at 15 min; assay type: ADME, organism-based, Bone element; conditions: in vivo, 0.25 h
[6] = species: Rattus norvegicus; experiment: Biodistribution in rat bone in the presence of GdDTPA-HPDP at 30 min; assay type: ADME, organism-based, Bone element; conditions: in vivo, 0.5 h
[7] = species: Rattus norvegicus; experiment: Biodistribution in rat heart in the presence of 0.01 M Gd/0.01 M GdDTPA-AEP; assay type: ADME, organism-based; conditions: in vivo
[8] = species: Rattus norvegicus; experiment: Biodistribution in rat heart in the presence of 0.05 M /0.05 M GdDTPA-AEP; assay type: ADME, organism-based; conditions: in vivo
[9] = species: Rattus norvegicus; experiment: Biodistribution in rat heart in the presence of 0.05 M/0.08 M GdDTPA-HPDP; assay type: ADME, organism-based; conditions: in vivo
[10] = species: Rattus norvegicus; experiment: Biodistribution in rat heart in the presence of GdDTPA at 1 hr; assay type: ADME, organism-based; conditions: in vivo
[11] = species: Rattus norvegicus; experiment: Biodistribution in rat heart in the presence of GdDTPA-HPDP at 4 hr; assay type: ADME, organism-based; conditions: in vivo
[12] = species: Rattus norvegicus; experiment: Biodistribution in rat heart in the presence of NAC Gd/0.01 M GdDTPA-HPDP; assay type: ADME, organism-based; conditions: in vivo
[13] = species: Rattus norvegicus; experiment: Biodistribution in rat kidney in the presence of 0.01 M/0.01 M GdDTPA-AEP; assay type: ADME, organism-based; conditions: in vivo
[14] = species: Rattus norvegicus; experiment: Biodistribution in rat liver in the presence of NAC Gd/0.01 M GdDTPA-HPDP; assay type: ADME, organism-based; conditions: in vivo
[15] = species: Rattus norvegicus; experiment: Biodistribution in rat muscle in the presence of 0.01 M GdDTPA-BDP; assay type: ADME, organism-based, Muscle tissue; conditions: in vivo
[16] = species: Rattus norvegicus; experiment: Biodistribution in rat muscle in the presence of 0.10 M GdDTPA-BDP; assay type: ADME, organism-based, Muscle tissue; conditions: in vivo
[17] = species: Rattus norvegicus; experiment: Biodistribution in rat muscle in the presence of GdDTPA-BDP at 1 hr; assay type: ADME, organism-based, Muscle tissue; conditions: in vivo
[18] = species: Rattus norvegicus; experiment: Biodistribution in rat muscle in the presence of GdDTPA-BDPat 15 min; assay type: ADME, organism-based, Muscle tissue; conditions: in vivo, 0.25 h
[19] = species: Rattus norvegicus; experiment: Biodistribution in rat muscle in the presence of GdDTPA-BDPat 30 min; assay type: ADME, organism-based, Muscle tissue; conditions: in vivo, 0.5 h
[20] = species: Rattus norvegicus; experiment: Biodistribution in rat muscle in the presence of GdDTPA-HPDP at 4 hr; assay type: ADME, organism-based, Muscle tissue; conditions: in vivo
[21] = species: Rattus norvegicus; experiment: Biodistribution in rat liver in the presence of 0.001 M/0.008 M GdDTPA-AEP; assay type: ADME, organism-based; conditions: in vivo
[22] = species: Rattus norvegicus; experiment: Biodistribution in rat liver in the presence of 0.01 M GdDTPA-BDP; assay type: ADME, organism-based; conditions: in vivo
[23] = species: Rattus norvegicus; experiment: Biodistribution in rat liver in the presence of 0.01 M/0.01 M GdDTPA-AEP; assay type: ADME, organism-based; conditions: in vivo
[24] = species: Rattus norvegicus; experiment: Biodistribution in rat liver in the presence of 0.05 M/0.08 M GdDTPA-HPDP; assay type: ADME, organism-based; conditions: in vivo
[25] = species: Rattus norvegicus; experiment: Biodistribution in rat liver in the presence of 0.10 M GdDTPA-BDP; assay type: ADME, organism-based; conditions: in vivo
[26] = species: Rattus norvegicus; experiment: Biodistribution in rat liver in the presence of GdDTPA at 15 min; assay type: ADME, organism-based; conditions: in vivo, 0.25 h
[27] = species: Rattus norvegicus; experiment: Biodistribution in rat liver in the presence of GdDTPA at 4 hr; assay type: ADME, organism-based; conditions: in vivo
[28] = species: Rattus norvegicus; experiment: Biodistribution in rat blood in the presence of GdDTPA-BDP at 4 hr; assay type: ADME, organism-based; conditions: in vivo
[29] = species: Rattus norvegicus; experiment: Biodistribution in rat blood in the presence of GdDTPA-HPDP at 30 min; assay type: ADME, organism-based; conditions: in vivo, 0.5 h
[30] = species: Rattus norvegicus; experiment: Biodistribution in rat bone in the presence of 0.01 M GdDTPA-BDP; assay type: ADME, organism-based, Bone element; conditions: in vivo
[31] = species: Rattus norvegicus; experiment: Biodistribution in rat bone in the presence of 0.01 M/0.01 M GdDTPA-AEP; assay type: ADME, organism-based, Bone element; conditions: in vivo
[32] = species: Rattus norvegicus; experiment: Biodistribution in rat bone in the presence of 0.05 M/0.05 M GdDTPA-AEP; assay type: ADME, organism-based, Bone element; conditions: in vivo
[33] = species: Rattus norvegicus; experiment: Biodistribution in rat blood in the presence of 0.01 M/0.01 M GdDTPA-AEP; assay type: ADME, organism-based; conditions: in vivo
[34] = species: Rattus norvegicus; experiment: Biodistribution in rat blood in the presence of 0.10 M GdDTPA-BDP; assay type: ADME, organism-based; conditions: in vivo
[35] = species: Rattus norvegicus; experiment: Biodistribution in rat blood in the presence of GdDTPA at 1 hr; assay type: ADME, organism-based; conditions: in vivo
[36] = species: Rattus norvegicus; experiment: Biodistribution in rat blood in the presence of GdDTPA at 30 min; assay type: ADME, organism-based; conditions: in vivo, 0.5 h
[37] = species: Rattus norvegicus; experiment: Biodistribution in rat heart in the presence of GdDTPA-HPDPat 15 min; assay type: ADME, organism-based; conditions: in vivo, 0.25 h
[38] = species: Rattus norvegicus; experiment: Biodistribution in rat liver in the presence of GdDTPA-HPDP at 1 hr; assay type: ADME, organism-based; conditions: in vivo
[39] = species: Rattus norvegicus; experiment: Biodistribution in rat blood in the presence of 0.05 M/0.08 M GdDTPA-HPDP; assay type: ADME, organism-based; conditions: in vivo
[40] = species: Rattus norvegicus; experiment: Biodistribution in rat heart in the presence of GdDTPA; conditions: in vivo
[41] = species: Rattus norvegicus; experiment: Biodistribution in rat bone in the presence of GdDTPA-BDP at 1 h; conditions: in vivo
[42] = species: Rattus norvegicus; experiment: Biodistribution in rat bone in the presence of GdDTPA-BDP at 20 min; conditions: in vivo, 0.33 h
[43] = species: Rattus norvegicus; experiment: Biodistribution in rat liver in the presence of GdDTPA-BDP at 20 min; conditions: in vivo, 0.33 h
[44] = species: Rattus norvegicus; experiment: Biodistribution in rat heart in the presence of 0.10 M/0.11 M GdDTPA-HPDP; conditions: in vivo
[45] = species: Rattus norvegicus; experiment: Biodistribution in rat bone in the presence of 0.001 M/0.008 M GdDTPA-AEP; conditions: in vivo

ID/organ [1]: 13.3% | ID/organ [2]: 16.4% | ID/organ [3]: 0.287% | ID/organ [4]: 17.6% | ID/organ [5]: 15.5% | ID/organ [6]: 16.8% | ID/organ [7]: 0.012% | ID/organ [8]: 0.016% | ID/organ [9]: 0.007% | ID/organ [10]: 0.019% | ID/organ [11]: 0.003% | ID/organ [12]: 0.032% | ID/organ [13]: 0.222% | ID/organ [14]: 0.082% | ID/organ [15]: 4.38% | ID/organ [16]: 3.59% | ID/organ [17]: 4.47% | ID/organ [18]: 8.97% | ID/organ [19]: 5.17% | ID/organ [20]: 0.223% | ID/organ [21]: 0.239% | ID/organ [22]: 5.21% | ID/organ [23]: 18.3% | ID/organ [24]: 0.109% | ID/organ [25]: 0.795% | ID/organ [26]: 1.59% | ID/organ [27]: 0.163% | ID/organ [28]: 2.26% | ID/organ [29]: 2.46% | ID/organ [30]: 20.5% | ID/organ [31]: 0.641% | ID/organ [32]: 0.483% | ID/organ [33]: 0.503% | ID/organ [34]: 1.62% | ID/organ [35]: 0.094% | ID/organ [36]: 1.02% | ID/organ [37]: 0.081% | ID/organ [38]: 0.201% | ID/organ [39]: 0.27% | ID/organ [40]: 0.019% | ID/organ [41]: 17.6% | ID/organ [42]: 11% | ID/organ [43]: 1.02% | ID/organ [44]: 0.006% | ID/organ [45]: 0.264%
SMILES: O=C(O)CN(CCN(CC(=O)O)CC(=O)O)CCN(CC(=O)O)CC(=O)O [PENTETIC ACID]
